Measurements: patent US7238813B2, “Chemical compounds” (Smithkline Beecham Corporation, priority 2000, dated 2007)
pIC50: −log10 of the molar value.

Experiments:
[1] = test system: Human umbilical cord endothelial cells (HUVEC); assay: VEGF-driven cellular proliferation assay: BrdU incorporation assay (VEGF-C); format: cell-based; design: key to VEGF-C: + = pIC50 of 5.0–6.0; ++ = pIC50 of 6.0–7.0; +++ = pIC50 of > 7.0; − = a negative or inconclusive result; conditions: for pIC50: Homo sapiens
Method: VFGF-driven Cellular Proliferation Assay: BrdU Incorporation Assay (VEGF-C)
Human umbilical cord endothelial cells (HUVEC, Clonetics, CC2519) were passaged in Type I collagen-coated 100-mm petridishes in EGM-MV medium (Clonetics, CC3125) at 37° C. in a humidified 5% CO2, 95% air incubator. (HUVEC passaged more than 6 times in vitro were discarded and not subjected to assaying.) The cells were harvested using trypsin/EDTA, counted using a haemocytometer and plated at 5000 cells/well in a Type I-collagen coated 96-well plate (Becton Dickinson, 354407) in M199 medium (Gibco BRL, 12340-030) containing 5% FBS (Hyclone, A 1115-L) and gentamicin (at 50 μg/ml, Gibco BRL). After incubation overnight at 37° C., the media were replaced with 100 μl of M199 serum-free medium containing compounds at various concentrations with 0.6% DMSO and gentamicin. The compounds were diluted in serum-free M199 medium from 10 mM stock solutions prepared in 100% DMSO. After a 30 min incubation at 37° C., the cells were fed with 100 μl of serum-free M199 medium containing gentamicin, 0.2% culture-grade bovine serum albumin (BSA, Sigma A1993) and 20 ng/ml of VEGF (R&D systems, 293-VE) or 0.6 ng/ml of basic FGF (R&D systems, 233-FB), and cultured at 37° C. for another 24 h. The cells were pulsed with bromodeoxyuridine (BrdU at 10 μM in serum-free M199) at 37° C. for an additional 24 h. The incorporation of BrdU into the proliferating HUVEC were analyzed using BrdU Cell Proliferation ELISA (Roche Molecular Biochemicals, 1647229) according to the manufacturer's protocols. The optical density at 450 nm was measured with a multilabel counter (ARVO SX, Wallac). The percent inhibition of cell growth was calculated relative to blank control wells. The concentration of test compound that inhibits 50% of cell growth (IC50) was interpolated using nonlinear regression (Levernberg-Marquardt) and the equation, y=Vmax (1−x/(K+x))+Y2, where “K” was equal to the IC50. The IC50, values were converted to pIC50 values, i.e., −log IC50 in Molar concentration.

[2] = biological target: T1, GST-TIE2 (intracellular domains of human TIE2) (Homo sapiens, UniProt Q02763); assay: TIE-2 enzyme assay (TIE2-E), LANCE method; format: biochemical; conditions: 80 uM ATP
T1 construct: made in house
T1 sequence (Q02763 762-1104): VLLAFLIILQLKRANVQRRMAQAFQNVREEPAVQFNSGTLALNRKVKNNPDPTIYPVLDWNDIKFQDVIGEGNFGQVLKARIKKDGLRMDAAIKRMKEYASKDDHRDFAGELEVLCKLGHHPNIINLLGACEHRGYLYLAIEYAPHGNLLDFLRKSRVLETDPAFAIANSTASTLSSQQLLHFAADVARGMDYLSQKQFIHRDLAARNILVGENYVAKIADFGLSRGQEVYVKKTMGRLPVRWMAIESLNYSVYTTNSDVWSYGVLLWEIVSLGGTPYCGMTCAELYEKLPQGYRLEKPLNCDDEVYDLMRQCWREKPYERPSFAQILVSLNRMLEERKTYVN
Method: TIE-2Enzyme Assay (TIE2-E)
The TIE-2 enzyme assay used the LANCE method (Wallac) and GST-TIE2, baculovirus expressed recombinant constructs of the intracellular domains of human TIE2 (amino acids 762–1104, GenBank Accession # L06139) tagged by GST). […] This peptide phosphorylation was detected using the following procedure: for enzyme preactivation, GST-TIE2 was incubated for 30 mins at room temperature with 2 mM ATP, 5 mM MgCl2 and 12.5 mM DTT in 22.5 mM HEPES buffer (pH7.4). Preactivated GST-TIE2 was incubated for 30 mins at room temperature in 96 well plates with 1 μM D1-15 peptide, 80 uM ATP, 10 mM MgCl2, 0.1 mg/ml BSA and the test compound (diluted from a 10 mM stock in DMSO, final DMSO concentration was 2.4%) in 1 mM HEPES (pH7.4). The reaction was stopped by the addition of EDTA (final concentration 45 mM). Streptavidin linked-APC (allophycocyanin, Molecular Probe) and Europium-labeled anti-phosphorylated tyrosine antibody (Wallac) were then added at the final concentration of 17 μg/well and 2.1 μg/well, respectively. The APC signal was measured using an ARVO multilabel counter. (Wallac Berthold Japan). The percent inhibition of activity was calculated relative to blank control wells. The concentration of test compound that inhibits 50% of activity (IC50) was interpolated using nonlinear regression (Levernberg-Marquardt) and the equation, y=Vmax (1−x/(K+x))+Y2, where “K” was equal to the IC50. The IC50 values were converted to pIC50 values, i.e., −log IC50 in Molar concentration.

[3] = biological target: T2, TIE2 intracellular domain/c-fms extracellular domain (TIE2/c-fms) chimeric protein expressing mouse 3T3 cells (Homo sapiens, UniProt Q02763); assay: TIE-2 autophosphorylation assay (TIE2-C), ELISA; format: cell-based; conditions: TIE2/c-fms 3T3 cells, MCSF activation
T2 construct: a TIE2 intracellular domain/c-fms extracellular domain (TIE2/c-fms) chimeric protein; expressed in transfected cells; host or cells: mouse 3T3 cells
T2 sequence (Q02763 770-1124 limits assumed, change not shown): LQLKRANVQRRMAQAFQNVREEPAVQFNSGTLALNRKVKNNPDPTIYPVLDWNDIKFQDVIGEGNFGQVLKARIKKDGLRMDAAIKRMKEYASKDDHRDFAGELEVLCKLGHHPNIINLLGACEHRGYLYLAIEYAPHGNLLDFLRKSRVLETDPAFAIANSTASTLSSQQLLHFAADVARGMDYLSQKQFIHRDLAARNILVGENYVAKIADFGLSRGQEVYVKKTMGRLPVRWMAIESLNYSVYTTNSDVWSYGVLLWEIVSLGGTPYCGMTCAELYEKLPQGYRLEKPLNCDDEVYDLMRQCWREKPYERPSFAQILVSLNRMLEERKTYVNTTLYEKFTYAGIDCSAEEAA
Method: TIE-2 Autophosphorylation Assay (TIE2-C)
The TIE-2 autophosphorylation assay used an ELISA method and a TIE2 intracellular domain/c-fms extracellular domain (TIE2/c-fms) chimeric protein expressing mouse 3T3 cells. This assay measured the autophosphorylation level of TIE2 protein expressed in cells. The cells were cultured in high glucose DMEM (Sigma) containing 10% serum at 37° C. in a humidified 10% CO2, 90% air incubator. The test compound (diluted from a 10 mM stock in DMSO, final DMSO concentration was 0.1%) was incubated with TIE2/c-fms expressing cells for 1 hr in serum free DMEM in 96 well plates followed by the activation of TIE2/c-fms receptor using c-fms ligand, MCSF (macrophage colony stimulating factor). The culture media was removed by aspiration and the cells incubated for at least 30 mins on ice with lysis buffer containing 137 mM NaCl, 2 mM EDTA, 10% glycerol, […] sodium ortho vanadate and complete protease inhibitor cocktail (Roche) in 20 mM Tris-HCl (pH8.0). The cell extracts were transferred into Rat anti-c-fms antibody coated 96 well plates and incubated for 12 hrs at 4° C. The extracts were removed by aspiration and the plate was incubated with biotinylated anti-phosphotyrosine antibody, PT66 (Sigma) and then with HRP (Horseradish Peroxidase)-labeled streptavidin (PIERCE). The optical density at 450 nm derived from HRP catalyzed TMB was measured with an ARVO multilabel counter. (Wallac Berthold Japan). The percent inhibition of activity was calculated relative to blank control wells. The concentration of test compound that inhibits 50% of activity (IC50) was interpolated using nonlinear regression (Levernberg-Marquardt) and the equation, y=Vmax (1−x/(K+x))+Y2, where “K” was equal to the IC50. The IC50 values were converted to pIC50 values, i.e., −log IC50 in Molar concentration.

GST-VEGFR2 = biological target: T3, GST-VEGFR2 (Homo sapiens, UniProt P35968); assay: VEGF-R2 enzyme assay (VEGF-E), LANCE method; format: biochemical; conditions: 75 μM ATP
T3 construct: GST-VEGFR2, baculovirus expressed recombinant constructs of the intracellular domains of human TIE2 tagged by GST; made in house
T3 sequence (P35968 786-1356 limits assumed): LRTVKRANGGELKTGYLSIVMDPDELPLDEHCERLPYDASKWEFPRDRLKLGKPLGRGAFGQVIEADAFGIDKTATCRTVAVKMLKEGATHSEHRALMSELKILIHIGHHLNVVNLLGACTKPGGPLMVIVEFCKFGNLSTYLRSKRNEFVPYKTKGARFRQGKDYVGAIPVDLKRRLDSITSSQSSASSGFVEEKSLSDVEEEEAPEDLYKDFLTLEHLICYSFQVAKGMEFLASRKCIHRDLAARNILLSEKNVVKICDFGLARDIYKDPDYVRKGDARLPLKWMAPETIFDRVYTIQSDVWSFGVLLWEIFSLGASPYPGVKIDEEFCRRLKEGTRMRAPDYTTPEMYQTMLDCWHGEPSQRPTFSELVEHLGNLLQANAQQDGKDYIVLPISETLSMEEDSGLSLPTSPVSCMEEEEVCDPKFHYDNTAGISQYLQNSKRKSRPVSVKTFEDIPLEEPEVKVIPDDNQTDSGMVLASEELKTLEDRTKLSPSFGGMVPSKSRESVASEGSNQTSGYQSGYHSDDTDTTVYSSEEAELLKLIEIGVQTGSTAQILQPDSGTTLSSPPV
Method: VEGF-R2 Enzyme Assay (VEGF-E)
The VEGF enzyme assay used the LANCE method (Wallac) and GST-VEGFR2, baculovirus expressed recombinant constructs of the intracellular domains of human […] tagged by GST. […] The reaction was stopped by the addition of EDTA (final concentration 50 mM). Streptavidin linked-APC (allophycocyanin, Molecular Probe) and Europium-labeled anti-phosphorylated tyrosine antibody (Wallac) were then added at the final concentration of 15 nM and 1 nM, respectively. The APC signal was measured using an ARVO multilabel counter (Wallac Berthold, Japan). The percent inhibition of activity was calculated relative to blank control wells. The concentration of test compound that inhibits 50% of activity (IC50) was interpolated using nonlinear regression (Levernberg-Marquardt) and the equation, y=Vmax (1−x/(K+x))+Y2, where “K” was equal to the IC50. The IC50 values were converted to pIC50 values, i.e., −log IC50 in Molar concentration.

SMILES | pIC50 [2] | pIC50 [3] | pIC50 (GST-VEGFR2) | VEGF-E (GST-VEGFR2) | pIC50 [1] | VEGF-C [1]
CC(=O)Nc1nc2cc(Oc3ccc(NC(=O)Nc4cc(C(F)(F)F)ccc4F)cc3)ccc2[nH]1 [Example 25, N-(5-(4-((2-Fluoro-5-(trifluoromethyl)phenyl)aminocarbonylamino)phenoxy)-1H-benzimidazol-2-yl)acetamide] |  |  |  |  | > 7.00 | 
COC(=O)Nc1nc2ncc(Oc3ccc(NC(=O)Nc4cc(C(F)(F)F)ccc4F)cc3)cc2[nH]1.Cl [Example 75, Methyl N-(6-(4-((2-fluoro-5-(trifluoromethyl)phenyl)aminocarbonylamino)phenoxy)-3,4-diaza-1H-indole-2-yl)carbamate dihydrochloride] | 6.00 to 7.00 | > 7.00 |  |  |  | −
COC(=O)Nc1nc2cc(Oc3cccc(NC(=O)Nc4cccc(C(F)(F)F)c4)c3)ccc2[nH]1 [Example 20, Methyl N-(5-(3-((3-(trifluoromethyl)phenyl)aminocarbonylamino)phenoxy)-1H-benzimidazol-2-yl)carbamate] | > 7.00 | 6.00 to 7.00 |  |  | > 7.00 | 
COC(=O)Nc1nc2ccc(Sc3ccc(NC(=O)Nc4cc(C(F)(F)F)ccc4F)cc3)cc2[nH]1 [Example 9, Methyl N-(5-(4-((2-fluoro-5-(trifluoromethyl)phenyl)aminocarbonylamino)phenylthio)-1H-benzimidazol-2-yl)carbamate] |  |  |  |  |  | −
COC(=O)Nc1nc2cc(Oc3ccc(NC(=O)Nc4cccc(SC(F)(F)F)c4)cc3)ccc2[nH]1 [Example 41, Methyl N-(5-(4-((3-(trifluoromethylthio)phenyl)aminocarbonylamino)phenoxy)-1H-benzimidazol-2-yl)carbamate] | > 7.00 | > 7.00 |  |  |  | −
COC(=O)Nc1nc2c(Br)cc(Oc3ccc(NC(=O)Nc4cc(C(F)(F)F)ccc4F)cc3)cc2s1.Cl [Example 65] |  |  |  |  |  | −
CN1CCN(CC(=O)Nc2nc3ccc(Oc4ccc(NC(=O)Nc5cc(C(F)(F)F)ccc5F)cc4)cc3[nH]2)CC1 [Example 101, N-(5-(4-((2-Fluoro-5-(trifluoromethyl)phenyl)aminocarbonylamino)phenoxy)-1H-benzimidazol-2-yl)(4-methyl-1-piperazino)acetamide] | > 7.00 | > 7.00 |  |  | > 7.00 | 
O=C(Nc1ccc(Oc2ccc3[nH]c(NC(=O)c4ccco4)nc3c2)cc1)Nc1cc(C(F)(F)F)ccc1F [Example 27, N-(5-(4-((2-Fluoro-5-(trifluoromethyl)phenyl)aminocarbonylamino)phenoxy)-1H-benzimidazol-2-yl)(2-fury)formamide] |  |  |  |  | 6.00 to 7.00 | 
COC(=O)Nc1nc2cc(Oc3ccc(NC(=S)Nc4cccc(OC)c4)cc3)ccc2[nH]1 [Example 185, Methyl N-(5-(4-((3-methoxyphenyl)aminothiocarbonylamino)phenoxy)-1H-benzimidazol-2-yl)carbamate] |  |  | 6.00 to 7.00 |  | 5.00 to 6.00 | 

More lines, main results first:

pIC50 [2] | pIC50 [3] | pIC50 (GST-VEGFR2) | VEGF-E (GST-VEGFR2) | SMILES | pIC50 [1] | VEGF-C [1]
> 7.00 |  | 5.00 to 6.00 |  | COC(=O)Nc1nc2ccc(Sc3ccc(NC(=O)Nc4cc([N+](=O)[O-])ccc4C)cc3)cc2[nH]1 [Example 6, Methyl N-(5-(4-((2-methyl-5-nitrophenyl)aminocarbonylamino)phenylthio)-1H-benzimidazol-2-yl)carbamate] |  | −
> 7.00 |  | > 7.00 |  | COC(=O)Nc1nc2ccc(Sc3ccc(NC(=O)Nc4cc([N+](=O)[O-])ccc4F)cc3)cc2[nH]1 [Example 8, Methyl N-(5-(4-((2-fluoro-5-nitrophenyl)aminocarbonylamino)phenylthio)-1H-benzimidazol-2-yl)carbamate] |  | −
6.00 to 7.00 |  | > 7.00 |  | COC(=O)Nc1nc2ccc(Sc3ccc(NC(=O)Nc4cc(C(F)(F)F)cc(C(F)(F)F)c4)cc3)cc2[nH]1 [Example 3, Methyl N-(5-(4-((3,5-di(trifluoromethyl)phenyl)aminocarbonylamino)phenylthio)-1H-benzimidazol-2-yl)carbamate] |  | −
> 7.00 | > 7.00 |  |  | COC(=O)Nc1nc2cc(Oc3ccc(NC(=O)Nc4cccc(Br)c4)cc3)ccc2[nH]1 [Example 40, Methyl N-(5-(4-((3-bromophenyl)aminocarbonylamino)phenoxy)-1H-benzimidazol-2-yl)carbamate] |  | −
> 7.00 |  |  | − | CCc1cccc(NC(=O)Nc2ccc(Sc3ccc4nc(NC(=O)OC)[nH]c4c3)cc2)c1 [Example 7, Methyl N-(5-(4-((3-ethylphenyl)aminocarbonylamino)phenylthio)-1H-benzimidazol-2-yl)carbamate] |  | −
 |  | > 7.00 |  | COC(=O)Nc1nc2ccc(Oc3ccc(NC(=O)Nc4cc(C(F)(F)F)ccc4F)cc3)cc2[nH]1 [Example 10, Methyl N-(5-(4-((2-fluoro-5-(trifluoromethyl)phenyl)aminocarbonylamino)phenoxy)-1H-benzimidazol-2-yl)carbamate] | > 7.00 | 
